# Biological target: T1, Mtb cytochrome bd (Mycobacterium tuberculosis, UniProt L7N662+O06139)
# T1 sequence (L7N662 1-485): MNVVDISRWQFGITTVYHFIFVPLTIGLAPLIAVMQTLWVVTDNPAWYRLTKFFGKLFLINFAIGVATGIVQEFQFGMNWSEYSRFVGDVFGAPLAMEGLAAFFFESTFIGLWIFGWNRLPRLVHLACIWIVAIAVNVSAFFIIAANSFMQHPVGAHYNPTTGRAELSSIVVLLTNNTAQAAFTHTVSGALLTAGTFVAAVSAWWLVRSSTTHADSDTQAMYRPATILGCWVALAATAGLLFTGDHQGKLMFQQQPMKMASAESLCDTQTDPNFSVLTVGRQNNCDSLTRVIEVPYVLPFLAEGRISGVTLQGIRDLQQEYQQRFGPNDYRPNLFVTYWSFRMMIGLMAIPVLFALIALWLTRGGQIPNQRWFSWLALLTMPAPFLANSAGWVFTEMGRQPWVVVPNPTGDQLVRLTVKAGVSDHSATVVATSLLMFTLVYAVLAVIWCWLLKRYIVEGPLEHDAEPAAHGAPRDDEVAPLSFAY
# T1 sequence (O06139 1-346): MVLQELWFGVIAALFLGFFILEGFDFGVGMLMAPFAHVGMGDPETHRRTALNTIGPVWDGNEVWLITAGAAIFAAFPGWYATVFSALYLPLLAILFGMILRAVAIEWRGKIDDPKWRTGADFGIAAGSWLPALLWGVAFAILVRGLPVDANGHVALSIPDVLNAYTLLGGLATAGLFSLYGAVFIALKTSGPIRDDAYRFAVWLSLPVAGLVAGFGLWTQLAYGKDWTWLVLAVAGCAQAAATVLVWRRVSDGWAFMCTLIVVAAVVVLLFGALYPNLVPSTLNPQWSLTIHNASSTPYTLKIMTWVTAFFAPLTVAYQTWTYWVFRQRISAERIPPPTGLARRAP
# Assay type: biochemical
# Details: read-out: % remaining OCR at 10 μM
row,Compound,remaining activity at 10 µM [%]
1,CC(C)(c1cc(Br)c(OCC(O)CN2CCN(Cc3ccccc3)CC2)c(Br)c1)c1cc(Br)c(OCC(O)CN2CCN(Cc3ccccc3)CC2)c(Br)c1 (stereo not drawn) [F0777-1198],51
2,C=CCSc1ncc(-c2ccccc2)n1-c1ccc(C)cc1 [F2964-1180],50.6
3,CCOc1ccc(-c2nc(CSc3nc4ccccc4c(=O)n3CCCN3CCCC3=O)c(C)o2)cc1 [F3382-2259],30.4
